Assay results reported in patent US11850252B2, “Use of nor-ursodeoxycholic acid for reducing liver fat” (Dr. Falk Pharma GmbH, priority 2017, dated 2023).
Several values for one entry are separate records, joined by “and”; a condition that tells them apart may be missing. Equal values may be shown once.

Test system: Patients with a clinical diagnosis of non-alcoholic hepatic steatosis
Assay: Liver enzymes (serum ALT, AST, GGT, AP, bilirubin), phase II clinical trial;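 for Serum bilirubin, Mean ± SD: unit mg/dL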
Format: in vivo, human
Conditions: for change of AST: V2 to V6-LOCF; for ALT change, Mean ± SD / ALT/AST ratio change, Mean ± SD / AST change, Mean ± SD / Serum bilirubin change, Mean ± SD: V6 (LOCF)-V2; for patients fulfilling outcome criterion ALT≤0.8 ULN: patients with ALT>0.8 at baseline; for patients fulfilling outcome criterion ALT<ULN: patients with ALT>1.0 at baseline; for patients fulfilling outcome criterion ALT<1.5 ULN: patients with ALT>1.5 at baseline
Protocol: A double-blinded, randomized, placebo-controlled phase II clinical trial was conducted as described in the following.
Patients with a clinical diagnosis of non-alcoholic hepatic steatosis were randomized to a 12-week treatment period and a 4-week follow-up. Patients were divided into three groups. The first groups received 1,500 mg Nor-UDCA per day (6 capsules with 250 mg Nor-UDCA in each capsule). The second group received 500 mg Nor-UDCA per day (2 capsules with 250 mg Nor-UDCA in each capsule and 4 capsules with 250 mg placebo in each capsule). The third group received 6 capsules with 250 mg placebo in each capsule.
The effects of Nor-UDCA on liver enzyme values have been assessed with respect to the courses of ALT, AST, GGT, AP and serum bilirubin. In addition, treatment effects with respect to pre-defined outcome criteria based on the upper limits of normal (ULN) of ALT, AST and GGT were examined.
The serum levels of ALT, AST, GGT, AP and serum bilirubin were determined by established standard laboratory methods.

[1] = N500 (500 mg/day), V2 baseline week 0
[2] = N1500 (1,500 mg/day), V2 baseline week 0
[3] = N1500 (1,500 mg/day), V3 week 2
[4] = N1500 (1,500 mg/day), V4 week 4
[5] = N1500 (1,500 mg/day), V5 week 8
[6] = N1500 (1,500 mg/day), V6 (LOCF)
[7] = N1500 (1,500 mg/day), V6 week 12

With CC(CC(=O)O)[C@H]1CCC2[C@H]3C(CC[C@@]21C)[C@@]1(C)CCC(O)C[C@H]1C[C@@H]3O (some centres unmarked) [Nor-UDCA, 24-nor-ursodeoxycholic acid] the “mean absolute change of ALT from V2 to V6-LOCF” value (N500 (500 mg/day)) was −7.0 U/I, the “patients fulfilling criterion AST>0.33 ULN to ≤0.67 ULN” value (N500 (500 mg/day)) was 26.4% and the “patients fulfilling outcome criterion GGT>0.33 ULN to ≤0.67” value (N500 (500 mg/day)) was 13.0%. The “patients with combined criterion of ALT and/or AST decrease 15%” value (N500 (500 mg/day)) was 49.3%, the “proportion of patients fulfilling criterion AST<1.5 ULN” value (N500 (500 mg/day)) was 50.0% and the “proportion of patients fulfilling criterion AST<ULN” value (N500 (500 mg/day)) was 27.3%. For the same compound, the “proportion of patients, criterion GGT ULN” value (N500 (500 mg/day)) was 12.2%, the GGT (N500 (500 mg/day), V2) was 144.7 U/I and the “ALT, Mean ± SD” value [1] was 80.3 ± 33.3 U/l. For the same compound, the “ALT/AST, Mean ± SD” value [1] was 1.71 ± 0.50, the “AP, Mean ± SD” value [1] was 83.9 ± 27.6 U/l and the “AST, Mean ± SD” value [1] was 49.8 ± 27.4 U/l. For the same compound, the “GGT, Mean ± SD” value [1] was 144.7 ± 160.0 U/l, the “Serum bilirubin, Mean ± SD” value [1] was 0.64 ± 0.40 mg/dL and the “change of AST” value (N500 (500 mg/day)) was −3.8 U/I. For the same compound, the “ALT, Mean ± SD” value (N500 (500 mg/day), V3 week 2) was 79.4 ± 40.6 U/l, the “ALT/AST, Mean ± SD” value (N500 (500 mg/day), V3 week 2) was 1.70 ± 0.51 and the “AP, Mean ± SD” value (N500 (500 mg/day), V3 week 2) was 88.3 ± 34.3 U/l. The “AST, Mean ± SD” value (N500 (500 mg/day), V3 week 2) was 47.9 ± 22.4 U/l, the “GGT, Mean ± SD” value (N500 (500 mg/day), V3 week 2) was 151.9 ± 166.4 U/l and the “Serum bilirubin, Mean ± SD” value (N500 (500 mg/day), V3 week 2) was 0.63 ± 0.38 mg/dL. For the same compound, the “ALT, Mean ± SD” value (N500 (500 mg/day), V4 week 4) was 75.2 ± 34.6 U/l, the “ALT/AST, Mean ± SD” value (N500 (500 mg/day), V4 week 4) was 1.67 ± 0.48 and the “AP, Mean ± SD” value (N500 (500 mg/day), V4 week 4) was 86.5 ± 34.3 U/l. For the same compound, the “AST, Mean ± SD” value (N500 (500 mg/day), V4 week 4) was 46.0 ± 18.8 U/l, the “GGT, Mean ± SD” value (N500 (500 mg/day), V4 week 4) was 138.9 ± 141.6 U/l and the “Serum bilirubin, Mean ± SD” value (N500 (500 mg/day), V4 week 4) was 0.61 ± 0.38 mg/dL. For the same compound, the “ALT, Mean ± SD” value (N500 (500 mg/day), V5 week 8) was 75.6 ± 36.8 U/l, the “ALT/AST, Mean ± SD” value (N500 (500 mg/day), V5 week 8) was 1.66 ± 0.47 and the “AP, Mean ± SD” value (N500 (500 mg/day), V5 week 8) was 86.1 ± 30.0 U/l. The “AST, Mean ± SD” value (N500 (500 mg/day), V5 week 8) was 46.9 ± 24.4 U/l, the “GGT, Mean ± SD” value (N500 (500 mg/day), V5 week 8) was 133.6 ± 124.2 U/l and the “Serum bilirubin, Mean ± SD” value (N500 (500 mg/day), V5 week 8) was 0.64 ± 0.41 mg/dL. For the same compound, the “ALT, Mean ± SD” value (N500 (500 mg/day), V6 (LOCF)) was 72.8 ± 33.2 U/l, the “ALT/AST, Mean ± SD” value (N500 (500 mg/day), V6 (LOCF)) was 1.67 ± 0.48 and the “AP, Mean ± SD” value (N500 (500 mg/day), V6 (LOCF)) was 86.9 ± 32.2 U/l. The “AST, Mean ± SD” value (N500 (500 mg/day), V6 (LOCF)) was 45.6 ± 24.7 U/l, the “GGT, Mean ± SD” value (N500 (500 mg/day), V6 (LOCF)) was 137.6 ± 144.8 U/l and the “Serum bilirubin, Mean ± SD” value (N500 (500 mg/day), V6 (LOCF)) was 0.62 ± 0.38 mg/dL. For the same compound, the “ALT change, Mean ± SD” value (N500 (500 mg/day)) was −7.0 ± 27.4 U/l, the “ALT/AST ratio change, Mean ± SD” value (N500 (500 mg/day)) was −0.05 and −0.05 ± 0.37 and the “AST change, Mean ± SD” value (N500 (500 mg/day)) was −3.8 ± 14.3 U/l. The “Serum bilirubin change, Mean ± SD” value (N500 (500 mg/day)) was -0.01 ± 0.22 mg/dL, the GGT (N500 (500 mg/day), V6-LOCF) was 137.6 U/I and the “ALT, Mean ± SD” value (N500 (500 mg/day), V6 week 12) was 70.8 ± 31.6 U/l. For the same compound, the “ALT/AST, Mean ± SD” value (N500 (500 mg/day), V6 week 12) was 1.66 ± 0.45, the “AP, Mean ± SD” value (N500 (500 mg/day), V6 week 12) was 87.4 ± 32.7 U/l and the “AST, Mean ± SD” value (N500 (500 mg/day), V6 week 12) was 43.9 ± 20.4 U/l. For the same compound, the “GGT, Mean ± SD” value (N500 (500 mg/day), V6 week 12) was 139.2 ± 147.6 U/l, the “Serum bilirubin, Mean ± SD” value (N500 (500 mg/day), V6 week 12) was 0.62 ± 0.36 mg/dL and the “patients fulfilling outcome criterion ALT≤0.8 ULN” value (N500 (500 mg/day)) was 14.8%. The “patients fulfilling outcome criterion ALT<ULN” value (N500 (500 mg/day)) was 16.9%, the “patients fulfilling outcome criterion ALT<1.5 ULN” value (N500 (500 mg/day)) was 37.9% and the “mean absolute change of ALT from V2 to V6-LOCF” value (N1500 (1,500 mg/day)) was −17.2 U/I. For the same compound, the “patients fulfilling criterion AST>0.33 ULN to ≤0.67 ULN” value (N1500 (1,500 mg/day)) was 32.7%, the “patients fulfilling outcome criterion GGT>0.33 ULN to ≤0.67” value (N1500 (1,500 mg/day)) was 21.6% and the “patients with combined criterion of ALT and/or AST decrease 15%” value (N1500 (1,500 mg/day)) was 71.6%. For the same compound, the “proportion of patients fulfilling criterion AST<1.5 ULN” value (N1500 (1,500 mg/day)) was 75.0%, the “proportion of patients fulfilling criterion AST<ULN” value (N1500 (1,500 mg/day)) was 54.5% and the “proportion of patients, criterion GGT ULN” value (N1500 (1,500 mg/day)) was 31.0%. The GGT (N1500 (1,500 mg/day), V2) was 178.8 U/I, the “ALT, Mean ± SD” value [2] was 78.6 ± 34.2 U/l and the “ALT/AST, Mean ± SD” value [2] was 1.68 ± 0.53. For the same compound, the “AP, Mean ± SD” value [2] was 92.0 ± 36.6 U/l, the “AST, Mean ± SD” value [2] was 49.3 ± 25.1 U/l and the “GGT, Mean ± SD” value [2] was 178.8 ± 205.6 U/l. For the same compound, the “Serum bilirubin, Mean ± SD” value [2] was 0.61 ± 0.32 mg/dL, the “change of AST” value (N1500 (1,500 mg/day)) was −8.7 U/I and the “ALT, Mean ± SD” value [3] was 72.8 ± 33.1 U/l. For the same compound, the “ALT/AST, Mean ± SD” value [3] was 1.66 ± 0.41, the “AP, Mean ± SD” value [3] was 95.4 ± 40.1 U/l and the “AST, Mean ± SD” value [3] was 43.7 ± 15.7 U/l. For the same compound, the “GGT, Mean ± SD” value [3] was 170.1 ± 217.9 U/l, the “Serum bilirubin, Mean ± SD” value [3] was 0.52 ± 0.26 mg/dL and the “ALT, Mean ± SD” value [4] was 62.6 ± 24.7 U/l. For the same compound, the “ALT/AST, Mean ± SD” value [4] was 1.53 ± 0.41, the “AP, Mean ± SD” value [4] was 90.9 ± 32.0 U/l and the “AST, Mean ± SD” value [4] was 42.6 ± 19.9 U/l. The “GGT, Mean ± SD” value [4] was 128.5 ± 126.1 U/l, the “Serum bilirubin, Mean ± SD” value [4] was 0.53 ± 0.26 mg/dL and the “ALT, Mean ± SD” value [5] was 62.0 ± 27.9 U/l. For the same compound, the “ALT/AST, Mean ± SD” value [5] was 1.54 ± 0.34, the “AP, Mean ± SD” value [5] was 91.1 ± 33.3 U/l and the “AST, Mean ± SD” value [5] was 40.5 ± 16.3 U/l. For the same compound, the “GGT, Mean ± SD” value [5] was 111.5 ± 112.7 U/l, the “Serum bilirubin, Mean ± SD” value [5] was 0.54 ± 0.28 mg/dL and the “ALT, Mean ± SD” value [6] was 61.8 ± 28.3 U/l. The “ALT/AST, Mean ± SD” value [6] was 1.54 ± 0.34, the “AP, Mean ± SD” value [6] was 91.8 ± 32.1 U/l and the “AST, Mean ± SD” value [6] was 40.8 ± 19.1 U/l. The “GGT, Mean ± SD” value [6] was 111.7 ± 116.3 U/l, the “Serum bilirubin, Mean ± SD” value [6] was 0.57 ± 0.31 mg/dL and the “ALT change, Mean ± SD” value (N1500 (1,500 mg/day)) was −17.2 ± 23.3 U/l. The “ALT/AST ratio change, Mean ± SD” value (N1500 (1,500 mg/day)) was −0.14 and −0.14 ± 0.42, the “AST change, Mean ± SD” value (N1500 (1,500 mg/day)) was −8.7 ± 13.6 U/l and the “Serum bilirubin change, Mean ± SD” value (N1500 (1,500 mg/day)) was -0.03 ± 0.20 mg/dL. The GGT (N1500 (1,500 mg/day), V6-LOCF) was 111.7 U/I, the “ALT, Mean ± SD” value [7] was 62.8 ± 29.1 U/l and the “ALT/AST, Mean ± SD” value [7] was 1.55 ± 0.34. The “AP, Mean ± SD” value [7] was 92.9 ± 31.3 U/l, the “AST, Mean ± SD” value [7] was 41.3 ± 19.8 U/l and the “GGT, Mean ± SD” value [7] was 109.6 ± 115.8 U/l. For the same compound, the “Serum bilirubin, Mean ± SD” value [7] was 0.56 ± 0.32 mg/dL, the “patients fulfilling outcome criterion ALT≤0.8 ULN” value (N1500 (1,500 mg/day)) was 17.5% and the “patients fulfilling outcome criterion ALT<ULN” value (N1500 (1,500 mg/day)) was 35.7%. The “patients fulfilling outcome criterion ALT<1.5 ULN” value (N1500 (1,500 mg/day)) was 53.1% and the “differences in the course of AP and serum bilirubin values between N1500, N500 and Placebo” value (N1500 and N500 versus Placebo) was “no relevant differences”.
